The values that follow come from patent publication US12186309B2, “RNA virus inhibitor compounds and uses thereof” (The Governors of the University of Alberta, priority 2021, dated 2025).

Each structure is given as a SMILES string. pEC50, pIC50: −log10 of the molar value. Read-outs that look alike come from different tables or passages of the source.

One series deals with SARS-CoV-2. In words: SARS-CoV-2 plaque reduction assay in Vero E6 cells. Type of series: cell-based. As to conditions: read-out: SARS-CoV-2 Antiviral EC50. (Plaques are areas of infected cells; plaque reduction assays count them against a control.)
A further series is described as follows: in vitro. Type of series: cell-based. On the procedure:
Cell viability was measured using the CellTiter-Glo luminescent cell viability assay (Promega). Separately A549 (human lung epithelial) cells and VeroE6 cells were seeded at 5×10^3 cells/well in 96-well plates and incubated overnight before treatment. Compounds were solubilized in DMSO and added to cells in an eight-point four-fold serial dilution (200 μM to 0.0122 μM). Cells were incubated in the presence of compounds for 24 hours before addition of the luminescence substrate and measurement of ATP activity according to manufacturer's instructions. The percentage of viable cells was calculated relative to cells treated with solvent alone (0.5% DMSO).

The target in the next series is SARS-CoV-2 3CLP (Severe acute respiratory syndrome coronavirus 2 (2019-nCoV) (SARS-CoV-2), UniProt P0DTD1). The experiment in a line: SARS-CoV-2 3CLP inhibition FRET assay. As to conditions: 80 nM SARS-CoV-2 3CLP, 100 μM FRET substrate, pH 7.8, 37° C., 10 min preincubation; read-out: 3CL Protease IC50. In kind it is biochemical.
The mark [1] stands for this setting: Severe acute respiratory syndrome coronavirus 2, Vero C1008, 48 h.
[2] abbreviates: Severe acute respiratory syndrome coronavirus 2, Vero C1008, Vero E6 cells, SARS-CoV-2/CANADA/VIDO 01/2020, MOI 0.0001 pfu/cell, plaques counted after 48 h.

One may read the pEC50 as −log10 of the EC50, conventionally taken in molar units. In general, CC50 refers to the concentration at which the toxic effect on the cells reaches its halfway point. Take `[2H]C1([2H])CC[C@@H](C[C@@H](C#N)NC(=O)[C@@H]2[C@@H]3[C@H](CN2C(=O)[C@@H](NC(=O)C(F)F)C(C)(C)C)C3(C)C)C(=O)N1` [Compound 24, (1R,2S,5S)—N-{(1S)-1-cyano-2-[(3S)-2-oxo(6,6-^2H2)piperidin-3-yl]ethyl}-3-[N-(difluoroacetyl)-3-methyl-L-valyl]-6,6-dimethyl-3-azabicyclo[3.1.0]hexane-2-carboxamide]: the pEC50 in the series with SARS-CoV-2 (setting [1]) is > 5.30. The CC50 at 24 h in “in vitro” (African green monkey) and in the series “in vitro” (human) was > 200 µM in each case.

As to `CC(C)(C)[C@H](NC(=O)C(F)F)C(=O)N1C[C@H]2[C@@H]([C@H]1C(=O)N[C@H](C#N)C[C@@H]1CCCNC1=O)C2(C)C` [Compound 20, (1R,2S,5S)—N-{(1S)-1-cyano-2-[(3S)-2-oxopiperidin-3-yl]ethyl}-3-[N-(difluoroacetyl)-3-methyl-L-valyl]-6,6-dimethyl-3-azabicyclo[3.1.0]hexane-2-carboxamide], the pEC50 in the series on SARS-CoV-2 (setting [1]) is > 5.30. Further, the CC50 at 24 h in the series “in vitro” (African green monkey) and in “in vitro” (human) was > 200 µM in each case.

A word on the pIC50: it is −log10 of the IC50, conventionally taken in molar units. For the compound `CC(C)C[C@@H](C(=O)N[C@H](C#N)C[C@@H]1CCCNC1=O)N1C(=O)C[C@H](c2ccccc2)C1=O` [Compound 5, (2S)—N-{(1S)-1-cyano-2-[(3S)-2-oxopiperidin-3-yl]ethyl}-2-[(3R)-2,5-dioxo-3-phenylpyrrolidin-1-yl]-4-methylpentanamide], on SARS-CoV-2 3CLP, the pIC50 is 5.16. In addition, the pEC50 with SARS-CoV-2 (setting [2]) was < 5.00.

`CC(C)C[C@@H](C(=O)N[C@H](C#N)C[C@@H]1CCCNC1=O)n1cccc(NC(=O)OC(C)(C)C)c1=O` [Compound 7, tert-butyl {1-[(2S)-1-({(1S)-1-cyano-2-[(3S)-2-oxopiperidin-3-yl]ethyl}amino)-4-methyl-1-oxopentan-2-yl]-2-oxo-1,2-dihydropyridin-3-yl}carbamate]: in the series with SARS-CoV-2 (setting [2]), the negative logarithm of the EC50 (pEC50) was > 5.00.

Take `CC(C)C[C@@H](C(=O)N[C@H](C#N)C[C@@H]1CCCNC1=O)N1C(=O)c2ccccc2C1=O` [Compound 1, (2S)—N-{(1S)-1-cyano-2-[(3S)-2-oxopiperidin-3-yl]ethyl}-2-(1,3-dioxo-1,3-dihydro-2H-isoindol-2-yl)-4-methylpentanamide]: the pIC50 on SARS-CoV-2 3CLP was 5.07. Also, the pEC50 with SARS-CoV-2 (setting [2]) is < 5.00.

Take `CC(C)C[C@@H](C(=O)N[C@H](C#N)C[C@@H]1CCCNC1=O)N1C(=O)CC(C)(C)C1=O` [Compound 2, (2S)—N-{(1S)-1-cyano-2-[(3S)-2-oxopiperidin-3-yl]ethyl}-2-(3,3-dimethyl-2,5-dioxopyrrolidin-1-yl)-4-methylpentanamide]: at SARS-CoV-2 3CLP, the pIC50 was 4.97. Further, the pEC50 in the series with SARS-CoV-2 (setting [2]) was < 5.00.
